According to patent US20200101068A1, “Heteroaryl Derivatives as PARP Inhibitors” (Lupin Limited, priority 2015, published 2020):
pIC50: −log10 of the molar value.

Target: T1, PARP1 (Homo sapiens, UniProt P09874)
T1 construct: purchased BPS Bioscience
Experiment: PARP1 biochemical assay (BPS Bioscience kit, chemiluminescent)
Settings: histone-coated plate, biotinylated NAD+, 60 min at 25° C., luminescence; read-out: PARP 1 inhibition IC50
Method: Example 16: PARP1 Biochemical Assay
The assay was performed using BPS Bioscience kit. The 96-well strip plate was coated with 50 μl of histone mixture and incubated at 4° C. overnight. The next day, the wells were blocked by adding 100 μl of blocking buffer. The plate was washed and 25 μl of appropriate concentration of PARP1 (25-75 ng/well) was added in all of the Test and Positive control wells. In the Negative control wells, the enzyme was replaced with 25 μl of water. 5 μl each of 10× PARP assay buffer and activated DNA was added in all the wells (Test, Positive and Negative control wells). 10× concentration of the test compounds were prepared and 5 μl test compounds were added to the respective wells. The reaction volume was made up to 45 μl by adding water to all of the wells. 5 μl of 10× PARP assay mixture containing biotinilated NAD^+ was added in each well and the plate was incubated at ambient temperature (25° C.) for 60 min. After washing the plate 50 μl of Streptavidin-HRP was added in each well, the plate was incubated at RT for 30 min. The plate was washed and the luminescence was read in PHERAStar plate reader after adding 100 μl of chemiluminescent substrate.
PARP inhibition was calculated using the following formula:
% PARP inhibition=100−[(RLU test compound treated sample−RLU negative control)/(RLU Positive control−RLU negative control)×100]
IC50 values were calculated by plotting % inhibition against the respective concentrations of test compounds using GraphPad Prism 5.

T1 sequence (P09874 whole entry): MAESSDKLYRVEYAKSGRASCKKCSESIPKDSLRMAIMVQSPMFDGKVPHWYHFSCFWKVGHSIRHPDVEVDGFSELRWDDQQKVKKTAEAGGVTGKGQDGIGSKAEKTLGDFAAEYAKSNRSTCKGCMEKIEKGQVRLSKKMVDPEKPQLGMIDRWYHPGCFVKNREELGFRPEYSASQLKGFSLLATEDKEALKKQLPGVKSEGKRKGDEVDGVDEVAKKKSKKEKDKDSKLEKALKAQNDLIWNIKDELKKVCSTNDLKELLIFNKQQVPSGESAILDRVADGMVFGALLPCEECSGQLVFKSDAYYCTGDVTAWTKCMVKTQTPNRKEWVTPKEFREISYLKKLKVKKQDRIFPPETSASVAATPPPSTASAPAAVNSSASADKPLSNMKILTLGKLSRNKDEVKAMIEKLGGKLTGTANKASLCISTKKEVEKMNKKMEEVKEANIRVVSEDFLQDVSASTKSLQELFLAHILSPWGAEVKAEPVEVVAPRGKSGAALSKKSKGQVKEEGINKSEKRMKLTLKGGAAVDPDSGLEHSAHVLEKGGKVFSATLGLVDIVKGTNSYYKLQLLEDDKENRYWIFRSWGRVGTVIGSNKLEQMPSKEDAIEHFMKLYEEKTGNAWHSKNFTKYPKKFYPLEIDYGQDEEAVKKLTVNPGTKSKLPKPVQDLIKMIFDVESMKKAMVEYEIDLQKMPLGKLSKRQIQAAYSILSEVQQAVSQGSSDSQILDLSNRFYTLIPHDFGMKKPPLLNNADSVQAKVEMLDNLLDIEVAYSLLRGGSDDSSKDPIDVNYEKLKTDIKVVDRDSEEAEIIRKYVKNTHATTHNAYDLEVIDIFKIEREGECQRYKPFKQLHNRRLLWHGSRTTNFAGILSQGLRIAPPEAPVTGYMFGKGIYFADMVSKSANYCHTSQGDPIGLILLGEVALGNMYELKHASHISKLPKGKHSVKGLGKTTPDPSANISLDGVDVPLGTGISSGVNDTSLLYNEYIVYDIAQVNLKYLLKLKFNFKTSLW

Row | SMILES | pIC50
1 | N#Cc1ccc(N2CCN([C@@H]3CC[C@@H](c4cc5ncccc5c(=O)[nH]4)C3)CC2)cc1 (single isomer, unassigned) [Compound 12] | 7.30 to 8.29
2 | O=c1[nH]c(C2=C[C@H](N3CCN(c4ccc(C(F)(F)F)cc4)CC3)CC2)cc2ncccc12 [Compound 33, (R)-7-(3-(4-(4-(trifluoromethyl)phenyl)piperazin-1-yl)cyclopent-1-en-1-yl)-1,6-naphthyridin-5(6H)-one] | 7.30 to 8.29
3 | N#Cc1ccc(N2CCN([C@H]3C=C(c4cc5nccnc5c(=O)[nH]4)CC3)CC2)cc1 [Compound 41, (R)-4-(4-(3-(5-oxo-5,6-dihydropyrido[3,4-b]pyrazin-7-yl)cyclopent-2-en-1-yl)piperazin-1-yl)benzonitrile] | 7.30 to 8.29
4 | O=c1[nH]c(C2=C[C@H](N3CCN(c4nccs4)CC3)CC2)cc2sccc12 [Compound 51, (R)-6-(3-(4-(thiazol-2-yl)piperazin-1-yl)cyclopent-1-en-1-yl)thieno[3,2-c]pyridin-4(5H)-one] | 7.30 to 8.29
5 | N#Cc1ccc(N2C[C@@H]3C[C@H]2CN3C2C=C(c3cc4ncccc4c(=O)[nH]3)CC2)cc1 (single isomer, unassigned) [Compound 16] | 7.30 to 8.29
6 | CNc1ccc(N2CCN([C@H]3C=C(c4cc5ncccc5c(=O)[nH]4)CC3)CC2)cc1 [Compound 27, (R)-7-(3-(4-(4-(methylamino)phenyl)piperazin-1-yl)cyclopent-1-en-1-yl)-1,6-naphthyridin-5(6H)-one] | 7.30 to 8.29
7 | NC(=O)c1ccc(N2CCN([C@H]3C=C(c4cc5ncccc5c(=O)[nH]4)CC3)CC2)cc1 [Compound 19, (R)-4-(4-(3-(5-oxo-5,6-dihydro-1,6-naphthyridin-7-yl)cyclopent-2-en-1-yl)piperazin-1-yl)benzamide] | 8.30 to 9.30
8 | CNC(=O)c1ccc(N2CCN([C@H]3C=C(c4cc5sccc5c(=O)[nH]4)CC3)CC2)cc1 [Compound 49, (R)—N-methyl-4-(4-(3-(4-oxo-4,5-dihydrothieno[3,2-c]pyridin-6-yl)cyclopent-2-en-1-yl)piperazin-1-yl)benzamide] | 8.30 to 9.30
9 | N#Cc1ccc(N2CCN([C@H]3C=C(c4cc5ncccc5c(=O)[nH]4)CC3)CC2)cc1 [Compound 1, (R)-4-(4-(3-(5-oxo-5,6-dihydro-1,6-naphthyridin-7-yl)cyclopent-2-en-1-yl)piperazin-1-yl)benzonitrile] | 8.30 to 9.30
10 | N#Cc1ccc(N2CCN([C@H]3C=C(c4cn5cccc5c(=O)[nH]4)CC3)CC2)cc1 [Compound 56, (R)-4-(4-(3-(1-oxo-1,2-dihydropyrrolo[1,2-a]pyrazin-3-yl)cyclopent-2-en-1-yl)piperazin-1-yl)benzonitrile] | 8.30 to 9.30
11 | N#Cc1ccc(N2CCN([C@H]3C=C(c4cc5cccn5c(=O)[nH]4)CC3)CC2)cc1 [Compound 54, (R)-4-(4-(3-(1-oxo-1,2-dihydropyrrolo[1,2-c]pyrimidin-3-yl)cyclopent-2-en-1-yl)piperazin-1-yl)benzonitrile] | 8.30 to 9.30
12 | N#Cc1ccc(N2CCN([C@H]3C=C(c4cc5ncccc5c(=O)[nH]4)CC3)CC2)c(F)c1 [Compound 23, (R)-3-fluoro-4-(4-(3-(5-oxo-5,6-dihydro-1,6-naphthyridin-7-yl)cyclopent-2-en-1-yl)piperazin-1-yl)benzonitrile] | 8.30 to 9.30
13 | C[C@@H]1CN(c2ccc(C#N)cc2)CCN1[C@@H]1C=C(c2cc3ncccc3c(=O)[nH]2)CC1 (racemic) [Compound 15, 4-((R)-3-methyl-4-((S/R)-3-(5-oxo-5,6-dihydro-1,6-naphthyridin-7-yl)cyclopent-2-en-1-yl)piperazin-1-yl)benzonitrile] | 7.30 to 8.29
14 | N#Cc1ccc(N2CCN([C@H]3C=C(c4cc5ncccc5c(=O)[nH]4)CC3)CC2=O)cc1 [Compound 13, (R)-4-(2-oxo-4-(3-(5-oxo-5,6-dihydro-1,6-naphthyridin-7-yl)cyclopent-2-en-1-yl)piperazin-1-yl)benzonitrile] | 7.30 to 8.29
15 | O=c1[nH]c(C2=C[C@H](N3CCN(c4ccc5c(c4)CCC5)CC3)CC2)cc2ncccc12 [Compound 30, (R)-7-(3-(4-(2,3-dihydro-1H-inden-5-yl)piperazin-1-yl)cyclopent-1-en-1-yl)-1,6-naphthyridin-5(6H)-one] | 8.30 to 9.30
16 | O=c1[nH]c(C2=C[C@H](N3CCN(c4ccc(F)cc4)CC3)CC2)cc2sccc12 [Compound 47, (R)-6-(3-(4-(4-fluorophenyl)piperazin-1-yl)cyclopent-1-en-1-yl)thieno[3,2-c]pyridin-4(5H)-one] | 8.30 to 9.30
17 | O=C1OCc2cc(N3CCN([C@H]4C=C(c5cc6ncccc6c(=O)[nH]5)CC4)CC3)ccc21 [Compound 31, (R)-7-(3-(4-(1-oxo-1,3-dihydroisobenzofuran-5-yl)piperazin-1-yl)cyclopent-1-en-1-yl)-1,6-naphthyridin-5(6H)-one] | 8.30 to 9.30
18 | N#Cc1ccc(N2CCN([C@H]3C=C(c4cc5ncccc5c(=O)[nH]4)CC3)CC2)nc1 [Compound 34, (R)-6-(4-(3-(5-oxo-5,6-dihydro-1,6-naphthyridin-7-yl)cyclopent-2-en-1-yl)piperazin-1-yl)nicotinonitrile] | 8.30 to 9.30
19 | COc1ccc(N2CCN([C@H]3C=C(c4cc5ncccc5c(=O)[nH]4)CC3)CC2)cc1 [Compound 25, (R)-7-(3-(4-(4-methoxyphenyl)piperazin-1-yl)cyclopent-1-en-1-yl)-1,6-naphthyridin-5(6H)-one] | 8.30 to 9.30

Now from value to compound:

Row | pIC50 | SMILES
20 | 8.30 to 9.30 | O=c1[nH]c(C2=C[C@H](N3CCN(c4ccccc4)CC3)CC2)cc2ncccc12 [Compound 21, (R)-7-(3-(4-phenylpiperazin-1-yl)cyclopent-1-en-1-yl)-1,6-naphthyridin-5(6H)-one]
21 | 8.30 to 9.30 | Cc1c(C2=C[C@@H](N3CCN(c4ccc(C#N)cc4)CC3)CC2)[nH]c(=O)c2cccnc12 [Compound 10, (S)-4-(4-(3-(8-methyl-5-oxo-5,6-dihydro-1,6-naphthyridin-7-yl)cyclopent-2-en-1-yl)piperazin-1-yl)benzonitrile]
22 | 8.30 to 9.30 | C[C@@H]1CN(c2ccc(C#N)cc2)CCN1C1C=C(c2cc3ncccc3c(=O)[nH]2)CC1 (single isomer, unassigned) [Compound 14]
23 | 8.30 to 9.30 | N#Cc1cnc(N2CCN([C@H]3C=C(c4cc5ncccc5c(=O)[nH]4)CC3)CC2)s1 [Compound 35, (R)-2-(4-(3-(5-oxo-5,6-dihydro-1,6-naphthyridin-7-yl)cyclopent-2-en-1-yl)piperazin-1-yl)thiazole-5-carbonitrile]
24 | 8.30 to 9.30 | N#Cc1ccc(N2CCN([C@H]3C=C(c4[nH]c(=O)c5cccnc5c4[N+](=O)[O-])CC3)CC2)cc1 [Compound 8, (R)-4-(4-(3-(8-nitro-5-oxo-5,6-dihydro-1,6-naphthyridin-7-yl)cyclopent-2-en-1-yl)piperazin-1-yl)benzonitrile]
25 | 8.30 to 9.30 | N#Cc1ccc(N2CCN([C@H]3C=C(c4cc5sccc5c(=O)[nH]4)CC3)CC2)cc1 [Compound 42, (R)-4-(4-(3-(4-oxo-4,5-dihydrothieno[3,2-c]pyridin-6-yl)cyclopent-2-en-1-yl)piperazin-1-yl)benzonitrile]
26 | 8.30 to 9.30 | N#Cc1ccc(N2CCN([C@H]3C=C(c4cc5cccnc5c(=O)[nH]4)CC3)CC2)cc1 [Compound 37, (R)-4-(4-(3-(8-oxo-7,8-dihydro-1,7-naphthyridin-6-yl)cyclopent-2-en-1-yl)piperazin-1-yl)benzonitrile]
27 | 8.30 to 9.30 | N#Cc1ccc(N2CCN([C@H]3C=C(c4cc5scnc5c(=O)[nH]4)CC3)CC2)cc1 [Compound 44, (R)-4-(4-(3-(4-oxo-4,5-dihydrothiazolo[4,5-c]pyridin-6-yl)cyclopent-2-en-1-yl)piperazin-1-yl)benzonitrile]
28 | 8.30 to 9.30 | N#Cc1ccc(N2CCN([C@H]3C=C(c4cc5ccncc5c(=O)[nH]4)CC3)CC2)cc1 [Compound 38, (R)-4-(4-(3-(1-oxo-1,2-dihydro-2,7-naphthyridin-3-yl)cyclopent-2-en-1-yl)piperazin-1-yl)benzonitrile]
29 | 8.30 to 9.30 | O=c1[nH]c(C2=C[C@H](N3CCN(c4ccc(F)cc4F)CC3)CC2)cc2ncccc12 [Compound 39, (R)-7-(3-(4-(2,4-difluorophenyl)piperazin-1-yl)cyclopent-1-en-1-yl)-1,6-naphthyridin-5(6H)-one]
30 | 8.30 to 9.30 | O=c1[nH]c(C2=C[C@H](N3CCN(c4ccc(F)cc4)CC3)CC2)cc2cccn12 [Compound 55, (R)-3-(3-(4-(4-fluorophenyl)piperazin-1-yl)cyclopent-1-en-1-yl)pyrrolo [1,2-c]pyrimidin-1(2H)-one]
31 | 8.30 to 9.30 | Cc1ccccc1N1CCN([C@H]2C=C(c3cc4ncccc4c(=O)[nH]3)CC2)CC1 [Compound 3, (R)-7-(3-(4-(o-tolyl)piperazin-1-yl)cyclopent-1-en-1-yl)-1,6-naphthyridin-5(6H)-one]
32 | 8.30 to 9.30 | N#Cc1ccc(N2CCN([C@@H]3CC[C@H](c4cc5ncccc5c(=O)[nH]4)C3)CC2)cc1 (single isomer, unassigned) [Compound 11]
33 | 8.30 to 9.30 | O=c1[nH]c(C2=C[C@H](N3CCN(c4ccc(Cl)cc4)CC3)CC2)cc2ncccc12 [Compound 24, (R)-7-(3-(4-(4-chlorophenyl)piperazin-1-yl)cyclopent-1-en-1-yl)-1,6-naphthyridin-5(6H)-one]
